Results from PubChem BioAssay (NCI).
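96-well plates; 48 h exposure; 5 concentrations. Endpoints by linear interpolation between flanking doses. Not reached: highest tested concentration assigned. TGI marks complete inhibition of growth.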

Columns and labels:
Test in all cases: DTP human tumour cell line panel, 48 h
HOP-92 NSCLC = test system: HOP-92 NSCLC
DU-145 prostate = test system: DU-145 prostate
MOLT-4 leukemia = test system: MOLT-4 leukemia
A549 NSCLC = test system: A549 NSCLC
EKVX NSCLC = test system: EKVX NSCLC
SK-OV-3 ovarian = test system: SK-OV-3 ovarian
SK-MEL-2 melanoma = test system: SK-MEL-2 melanoma
CCRF-CEM leukemia = test system: CCRF-CEM leukemia
HL-60(TB) leukemia = test system: HL-60(TB) leukemia
UACC-62 melanoma = test system: UACC-62 melanoma
COLO 205 colon = test system: COLO 205 colon
NCI-H226 lung = test system: NCI-H226 lung
ACHN renal = test system: ACHN renal
RPMI-8226 leukemia = test system: RPMI-8226 leukemia
SR leukemia = test system: SR leukemia
MDA-MB-435 = test system: MDA-MB-435
RXF 393 renal = test system: RXF 393 renal
M14 melanoma = test system: M14 melanoma
SW-620 colon = test system: SW-620 colon
NCI-H23 lung = test system: NCI-H23 lung
NCI/ADR-RES ovarian = test system: NCI/ADR-RES ovarian
TK-10 renal = test system: TK-10 renal
NCI-H522 lung = test system: NCI-H522 lung
UO-31 renal = test system: UO-31 renal
LOX IMVI melanoma = test system: LOX IMVI melanoma
K-562 leukemia = test system: K-562 leukemia
UACC-257 melanoma = test system: UACC-257 melanoma
SNB-75 CNS = test system: SNB-75 CNS
SF-268 CNS = test system: SF-268 CNS
SK-MEL-5 melanoma = test system: SK-MEL-5 melanoma
PC-3 prostate = test system: PC-3 prostate
KM12 colon = test system: KM12 colon
SNB-19 CNS = test system: SNB-19 CNS
CAKI-1 renal = test system: CAKI-1 renal
HCT-15 colon = test system: HCT-15 colon
HCT-116 colon = test system: HCT-116 colon
OVCAR-8 ovarian = test system: OVCAR-8 ovarian
BT-549 breast = test system: BT-549 breast
SN12C renal = test system: SN12C renal
OVCAR-4 ovarian = test system: OVCAR-4 ovarian
NCI-H460 lung = test system: NCI-H460 lung
T-47D breast = test system: T-47D breast
A498 renal = test system: A498 renal
SF-295 CNS = test system: SF-295 CNS
HOP-62 NSCLC = test system: HOP-62 NSCLC
IGROV1 ovarian = test system: IGROV1 ovarian
MCF7 breast = test system: MCF7 breast
786-0 renal = test system: 786-0 renal
MDA-N = test system: MDA-N
OVCAR-5 ovarian = test system: OVCAR-5 ovarian
U251 CNS = test system: U251 CNS
HCC-2998 colon = test system: HCC-2998 colon
SK-MEL-28 melanoma = test system: SK-MEL-28 melanoma
MDA-MB-231 breast = test system: MDA-MB-231 breast
OVCAR-3 ovarian = test system: OVCAR-3 ovarian
HT29 colon = test system: HT29 colon
HS 578T breast = test system: HS 578T breast

## CO[C@H]1O[C@@H]2CO[C@@H](c3ccccc3)O[C@H]2[C@@H]2C/C=C\CCC[C@@]12O
HOP-92 NSCLC
  TGI: 43.7 µM
DU-145 prostate
  TGI: 51.8 µM
MOLT-4 leukemia
  TGI: 42.2 µM
A549 NSCLC
  TGI: > 100 µM
EKVX NSCLC
  TGI: 45.8 µM
SK-OV-3 ovarian
  TGI: 99.7 µM
SK-MEL-2 melanoma
  TGI: 34.2 µM
CCRF-CEM leukemia
  TGI: > 100 µM
HL-60(TB) leukemia
  TGI: 51.2 µM
UACC-62 melanoma
  TGI: 30.7 µM
COLO 205 colon
  TGI: 33.6 µM
NCI-H226 lung
  TGI: 40 µM
ACHN renal
  TGI: 38.1 µM
RPMI-8226 leukemia
  TGI: 44.2 µM
SR leukemia
  TGI: 49.4 µM
MDA-MB-435
  TGI: 52.9 µM
RXF 393 renal
  TGI: 33.2 µM
M14 melanoma
  TGI: 45.9 µM
SW-620 colon
  TGI: 81.6 µM
NCI-H23 lung
  TGI: 52.7 µM
NCI/ADR-RES ovarian
  TGI: 88.3 µM
TK-10 renal
  TGI: > 100 µM
NCI-H522 lung
  TGI: 43.4 µM
UO-31 renal
  TGI: > 100 µM
LOX IMVI melanoma
  TGI: 32.4 µM
K-562 leukemia
  TGI: 51.1 µM
UACC-257 melanoma
  TGI: 43.2 µM
SNB-75 CNS
  TGI: > 100 µM
SF-268 CNS
  TGI: 43.3 µM
SK-MEL-5 melanoma
  TGI: 31.7 µM
PC-3 prostate
  TGI: 77.1 µM
KM12 colon
  TGI: 54.9 µM
SNB-19 CNS
  TGI: > 100 µM
CAKI-1 renal
  TGI: > 100 µM
HCT-15 colon
  TGI: 76.5 µM
HCT-116 colon
  TGI: 30.9 µM
OVCAR-8 ovarian
  TGI: > 100 µM
BT-549 breast
  TGI: 43.8 µM
SN12C renal
  TGI: 32.5 µM
OVCAR-4 ovarian
  TGI: > 100 µM
NCI-H460 lung
  TGI: 33 µM
T-47D breast
  TGI: > 100 µM
A498 renal
  TGI: 29 µM
SF-295 CNS
  TGI: 42 µM
HOP-62 NSCLC
  TGI: 35.5 µM
IGROV1 ovarian
  TGI: 96.2 µM
MCF7 breast
  TGI: 44.9 µM
786-0 renal
  TGI: 33 µM
MDA-N
  TGI: 60.8 µM
OVCAR-5 ovarian
  TGI: 52.5 µM
U251 CNS
  TGI: 40.2 µM
HCC-2998 colon
  TGI: 26.4 µM
SK-MEL-28 melanoma
  TGI: 89.1 µM
MDA-MB-231 breast
  TGI: 68.4 µM
OVCAR-3 ovarian
  TGI: 30.5 µM
HT29 colon
  TGI: 40.3 µM

## N=C(N)SCCC(=O)CCSC(=N)N
HOP-92 NSCLC
  TGI: > 100 µM
DU-145 prostate
  TGI: > 100 µM
MOLT-4 leukemia
  TGI: > 100 µM
A549 NSCLC
  TGI: > 100 µM
SK-OV-3 ovarian
  TGI: > 100 µM
CCRF-CEM leukemia
  TGI: > 100 µM
HL-60(TB) leukemia
  TGI: > 100 µM
COLO 205 colon
  TGI: > 100 µM
NCI-H226 lung
  TGI: > 100 µM
ACHN renal
  TGI: > 100 µM
SR leukemia
  TGI: > 100 µM
MDA-MB-435
  TGI: > 100 µM
RXF 393 renal
  TGI: > 100 µM
M14 melanoma
  TGI: > 100 µM
SW-620 colon
  TGI: > 100 µM
NCI-H23 lung
  TGI: > 100 µM
NCI/ADR-RES ovarian
  TGI: > 100 µM
TK-10 renal
  TGI: > 100 µM
NCI-H522 lung
  TGI: > 100 µM
UO-31 renal
  TGI: > 100 µM
LOX IMVI melanoma
  TGI: > 100 µM
K-562 leukemia
  TGI: > 100 µM
UACC-257 melanoma
  TGI: > 100 µM
SNB-75 CNS
  TGI: > 100 µM
SF-268 CNS
  TGI: > 100 µM
SK-MEL-5 melanoma
  TGI: > 100 µM
PC-3 prostate
  TGI: > 100 µM
KM12 colon
  TGI: > 100 µM
HS 578T breast
  TGI: > 100 µM
SNB-19 CNS
  TGI: > 100 µM
HCT-15 colon
  TGI: > 100 µM
HCT-116 colon
  TGI: > 100 µM
OVCAR-8 ovarian
  TGI: > 100 µM
SN12C renal
  TGI: > 100 µM
OVCAR-4 ovarian
  TGI: > 100 µM
NCI-H460 lung
  TGI: > 100 µM
T-47D breast
  TGI: > 100 µM
A498 renal
  TGI: > 100 µM
SF-295 CNS
  TGI: > 100 µM
MCF7 breast
  TGI: > 100 µM
MDA-N
  TGI: > 100 µM
U251 CNS
  TGI: > 100 µM
HCC-2998 colon
  TGI: > 100 µM
SK-MEL-28 melanoma
  TGI: > 100 µM
MDA-MB-231 breast
  TGI: > 100 µM
OVCAR-3 ovarian
  TGI: > 100 µM
HT29 colon
  TGI: > 100 µM
